Measurements reported in patent publication US20200297820A1, “STIMULATION OF HUMAN MEIBOMIAN GLAND FUNCTION” (The Schepens Eye Research Institute, Inc., priority 2013, published 2020).

Key:
Format in all cases: cell-based
LNCaP cells = assay: Proliferation of LNCaP control cells; details: 1% FBS, 2 days
Procedure: Regarding cell proliferation assay, the human meibomian gland epithelial cells and LNCaP cells were cultured in 12-well plates in designated media and then exposed to IGF-1 or GH for defined periods. At experimental termination, cells were trypsinized and counted with a hemocytometer.
FIGS. 10a, 10b, and 10c illustrate the influence of IGF-1 on the proliferation of human meibomian gland epithelial cells. Cells were cultured (100,000 cells/well in 12-well plates, 3 wells per group) in basal, proliferating, and/or differentiating media and treated with IGF-I for 2 to 6 days. […] P values are for post hoc comparison compared with the control value. […] ANOVA indicates analysis of variance; EGF-BPE, epidermal growth factor-bovine pituitary extract; KSFM, keratinocyte serum-free medium. All comparisons are with control value. Whiskers mark SEM. aP<0.05 compared with the control value, post hoc test.

[1] = test system: immortalized human meibomian gland cells; assay: 13-cis RA-induced late apoptosis/necrosis
[2] = test system: human meibomian gland epithelial cells; assay: High-performance thin-layer chromatography of total cellular lipid extracts; details: for accumulation of CE / accumulation of TG: 10 nM IGF-1 or 10 μg/mL AZM
Source text: (§1) Cell numbers were enumerated with a hemocytometer. Cellular lipid and lysosome accumulation were examined by staining cells with: Filipin III (a fluorometric probe for identifying unesterified cholesterol), LipidTOX green neutral lipid stain, and LysoTracker® Red DND-99 (a fluorescent technique designed for labeling acidic organelles such as lysosomes). Lysosomal lamellar bodies were identified by transmission electron microscopy. In brief, after culture and treatment on 24 mm polycarbonate membrane transwell inserts (0.4 μm pore size), cells were fixed in a solution of 2% formaldehyde+2.5% glutaraldehyde, in 0.08 M sodium cacodylate buffer, pH 7.4, post-fixed with 2% osmium tetroxide in 0.1 M sodium cacodylate buffer, and stained en bloc with 2% aqueousuranyl acetate. Samples were then dehydrated in graded ethyl alcohol solutions and embedded by using the tEPON-812 epoxy resin kit. Cross sections ([…]) were stained with 1% toluidine blue in 1% sodium tetraborate solution. Ultra-thin sections (60-90 nm) were imaged with a transmission electron microscope interfaced with a digital CCD camera. For biochemical assessments, cellular lipids were extracted with chloroform and methanol from samples with the same amount of protein. Lipids were then evaluated with high-performance thin-layer chromatography. With regard to the staining results, three Filipin, five LipidTox and four LysoTracker studies were conducted, and each experiment was performed in duplicate. Four random pictures were taken of each group, and four random areas were selected for the measurement of fluorescent intensities. The HPTLC experiments were performed in duplicate more than three times. Image data were quantified with ImageJ (http://rsbweb.nib.gov/ij/index.html). Electron microscopic analyses were performed in triplicate.
FIG. 8a illustrates the effect of AZM on the expression of cholesterol ester (CE), free cholesterol (FC), phosphatidylethanolamine (PE), phosphatidylcholine (PC), and phosphatidylinositol (PI) inhuman meibomian gland epithelial cells. Cells were treated with vehicle or 10 μg/ml AZM for 5 days before performing chromatographic analyses of total lipid extracts. FIG. 8b illustrates band intensity of the cells shown in FIG. 8a measured using ImageJ. Control band intensity was set to 1, and data (mean±SE) are reported as fold-change compared to control values. *p<0.05,**p<0.005, versus control. Band intensity analysis includes data from at least three independent experiments.
FIGS. 14a and 14b illustrate the effect of IGF-1, AZM, and IFG-1+AZM combination on the accumulation of CE, TG, FC, PE, and PC. […] FIG. 14b quantifies band intensity using ImageJ. The control band intensity was set to 1, and data (mean 6 SE) were reported as fold-change compared with control values. […] Other bands are unidentified lipids. Band intensity analysis included data from three independent experiments.

[3] = test system: human meibomian gland epithelial cells; assay: Immunoblot of signaling pathways (Akt, FoxO1, ERK, JAK2/STAT5)
Procedure: The disclosure turns now to sodium dodecyl sulfate-polyacrylamide gel, electrophoresis, and immunoblots. Cells were directly lysed in Laemmli buffer supplemented with 1% protease inhibitor cocktail (Sigma-Aldrich) and 5% β-mercaptoethanol (Sigma-Aldrich). Lysates were heated at 95° C. for 10 minutes, separated by sodium dodecyl sulfate-polyacrylamide gel electrophoresis on 10% Tris-glycine precast gels, and transferred to polyvinylidene difluoride membranes. Rabbit or mouse antibodies used were specific for phosphorylated Akt (p-Akt), pan-Akt, p-FoxO1, FoxO1, p-JAK2, JAK2, and β-actin; for p-ERK, ERK-2, STAT5, and the precursor form of SREBP-1; and for p-STAT5. Membranes were blocked with 5% bovine serum albumin in Tris-buffered saline containing 0.01% polysorbate 20. All primary antibodies were diluted to 1:1000 in blocking buffer except for p-Akt (1:4000), p-ERK (1:2000), ERK-2 (1:4000), SREBP-1 (1:200), and β-actin (1:10 000). Horseradish peroxidase-conjugated secondary antibodies were goat anti-rabbit IgG and Fc-specific goat anti-mouse IgG diluted to 1:5000. Proteins were visualized with enhanced chemiluminescent substrate or with ultrasensitive chemiluminescent substrate. Densitometry was performed with image-processing software.
To determine whether IGF-1 promotes the phosphorylation of Akt in human meibomian gland epithelial cells, cells were cultured under proliferating or differentiating conditions and then exposed to IGF-1 for 15 minutes.
FIGS. 9a, 9b, and 9c illustrate the effects of insulin-like growth factor 1 (IGF-1) and growth hormone (GH) on signaling pathways in human meibomian gland epithelial cells. Cells were cultured in keratinocyte serum-free medium containing epidermal growth factor (EGF) and bovine pituitary extract (BPE) for 2 days and then keratinocyte serum-free medium alone overnight or were cultured in 10% fetal bovine serum (FBS) medium for 5 to 7 days and in 1% FBS medium overnight. Cells were then incubated with vehicle or a 10 μM concentration of LY294002 for 2 hours, followed by IGF-1 or GH treatment for 15 minutes. Cell lysates were evaluated on immunoblotting. […] These experiments were repeated at least 3 times with similar results.
To assess whether GH activates Akt, FoxO1, ERK-2, or its classic (i.e., JAK2 and STAT5) signaling pathways in human meibomian gland epithelial cells, cells were cultured in proliferating or differentiating media, and were exposed to a 10 nM concentration of GH for 15 minutes, and processed for immunoblot analyses. […]

[4] = test system: immortalized human meibomian gland epithelial cells; assay: LipidTOX green neutral lipid staining (lipid accumulation); details: 10 nM each hormone, up to 13 days
[5] = test system: human meibomian gland epithelial cells; assay: Transmission electron microscopy of lysosomal lamellar bodies; details: 10 μg/ml, 5 days
Source text: as §1, with “With regard to the staining results, three Filipin, five LipidTox and four LysoTracker studies were conducted, and each experiment was performed in duplicate. Four random pictures were taken of each group, and four random areas were selected for the measurement of fluorescent intensities. The HPTLC experiments were performed in duplicate more than three times.” left out, “Electron microscopic analyses were performed in triplicate.” left out

Question: “IGF-1: recombinant human insulin-like growth factor 1” was tested. Which proliferation (LNCaP cells) did it give?
Answer: increased

Question: And the “13-cis RA-induced late apoptosis/necrosis” value [1]?
Answer: attenuates

Question: And the “accumulation of CE” value ([2]; 7 days)?
Answer: significant effect

Question: And the “accumulation of TG” value ([2]; 7 days)?
Answer: significant effect

Question: And the “phosphorylation of extracellular-signal-regulated kinases (ERKs)” value [3]?
Answer: increase the phosphorylation

Question: What about the “phosphorylation of ERK” value ([3]; 10 nM, 15 minutes, 2 studies enhanced, 3 no influence) of the same compound?
Answer: inconsistent effect

Question: And the “phosphorylation of FoxO1” value ([3]; 10 nM, 15 minutes, differentiating cells)?
Answer: increased phosphorylation of FoxO1

Question: And the “culture condition in which Akt and FoxO1 phosphorylation occurred” value ([3]; 10 nM, 15 minutes, proliferating or differentiating conditions)?
Answer: differentiating but not proliferating cells

Question: And the “concentration at which p-Akt effect became maximal” value ([3]; IGF-1 for 15 minutes)?
Answer: 10 nM

Question: What about the “concentration at which p-Akt effect could be detected” value ([3]; IGF-1 for 15 minutes) of the same compound?
Answer: 1 nM

Question: What about the “expression of p-Akt” value ([3]; IGF-1 for 15 minutes, differentiating cells) of the same compound?
Answer: dose-dependent expression of p-Akt

Question: What about the “phosphorylation of Akt” value ([3]; within minutes) of the same compound?
Answer: increases the phosphorylation of Akt

Question: And the accumulation of lipid [4]?
Answer: significant accumulation of lipid

Question: Which “accumulation of CE” value ([2]; 7 days) does the source give for `CC[C@H]1OC(=O)[C@H](C)[C@@H](O[C@H]2C[C@@](C)(OC)[C@@H](O)[C@H](C)O2)[C@H](C)[C@@H](O[C@@H]2O[C@H](C)C[C@H](N(C)C)[C@H]2O)[C@](C)(O)C[C@@H](C)CN(C)[C@H](C)[C@@H](O)[C@]1(C)O` [Azithromycin] here?
Answer: significant effect

Question: And the “accumulation of TG” value ([2]; 7 days)?
Answer: significant effect

Question: And the “accumulation of PE” value ([2]; 10 μg/mL AZM, 7 days)?
Answer: significant effect

Question: And the “accumulation of esterified cholesterol (CE)” value ([2]; 10 μg/ml, 5 days)?
Answer: significantly promotes an accumulation

Question: What about the “accumulation of free cholesterol (FC)” value ([2]; 10 μg/ml, 5 days) of the same compound?
Answer: significantly promotes an accumulation

Question: And the “accumulation of phosphatidylcholine (PC)” value ([2]; 10 μg/ml, 5 days)?
Answer: significantly promotes an accumulation

Question: And the “accumulation of phosphatidylethanolamine (PE)” value ([2]; 10 μg/ml, 5 days)?
Answer: significantly promotes an accumulation

Question: What about the “accumulation of phosphatidylinositol (PI)” value ([2]; 10 μg/ml, 5 days) of the same compound?
Answer: significantly promotes an accumulation

Question: And the lysosomal lamellar bodies [5]?
Answer: many of these lysosomes appear to be onion-shaped lamellar bodies

Question: Which results are given for GH: human growth hormone?
Answer: proliferation (LNCaP cells): increased; phosphorylation of extracellular-signal-regulated kinases (ERKs) [3]: increase the phosphorylation; activation of Akt, FoxO1, ERK-2, JAK2 and STAT5 ([3]; 10 nM, 15 minutes, proliferating or differentiating media): did not show that GH elicited effects; activation of Akt, FoxO1, ERK-2, JAK2 and STAT5 ([3]; doses of 0.05 to 50 nM): negative results; accumulation of lipid [4]: significant accumulation of lipid
